The record followed here is patent US20260294885A1, “TREATMENT OF INFLAMMATORY CONDITIONS COMPRISING IMU-856” (IMMUNIC AG, priority 2023, published 2026).

In one series the test system is IL-2. Put plainly: Serum IL-2 release on gluten challenge, Part C. The format is in vivo, human. As to conditions: first day of gluten challenge (Day 14). The method, then: Also, biomarker response upon treatment of CelD with IMU-856 was assessed. […] A wide inter-individual range of IL-2 response leads to large SD, especially in the placebo group. The inter-individual variance regarding IL-2 response decreases with increasing dose levels as illustrated in FIG. 8 (N=39/43 included in IL-2 analysis set. 3 patients not included in this analysis due to early termination and 1 incomplete IL-2 sampling due to site error. Methods used for IL-2 analysis: Milliplex® Human High Sensitivity T Cell Magnetic Bead Panel, 3 plex (Luminex®) and Simoa® CorPlex™ Human IL-2 Kit (Quanterix)).
FIG. 8 illustrates the mean absolute change and maximum change in serum IL-2 (in pg/mL) from pre-gluten to 4 hours post-gluten on first day of gluten challenge (IL: interleukin; SD: standard deviation).

For series [1], the system named is patients with celiac disease. Put plainly: Mean corpuscular hemoglobin concentration, Part C. The format is in vivo, human. Conditions: Baseline to Day 29. An excerpt: Since hemoglobin is the molecule to which oxygen attaches, MCHC is a measure of the average oxygen-carrying capacity of the red blood cells in circulating the body (https://www.verywellhealth.com/mean-cell-hemoglobin-concentration-4584155).

Series [2] relates to dextran sodium sulphate (DSS)-induced colitis. Put plainly: DSS-induced colitis model in mice (different settings). The format is in vivo. Conditions: different settings of DSS colitis model.
In another series the test system is DSS-induced colitis. Nature of the series: Therapeutic DSS-induced colitis mouse model (Example 3). It counts as in vivo, male C57BL/6 mice. As to conditions: 1 mg/kg per oral gavage once daily for 5 days from disease onset. The method, then: For this model, which is an often-used in vivo model for IBD, male C57BL/6 mice were treated with 2.8% DSS in drinking water for 5 days. Treatment with either vehicle (PEG400), 60 mg/kg sulfasalazine (positive control) or 1 mg/kg IMU-856 was given at disease onset (day 4 after start of DSS treatment) per oral gavage once daily for 5 days. Diarrhea score (normal consistency; soft; pasty, unshaped, not sticking to anus; diarrhea, sticking to anus; diarrhea with macroscopic bleeding) was assessed daily.
At the end of the study, mice were sacrificed and the colon was collected. Colon histology score consisting of an architecture score (0-3) and an infiltration score (0-3) was assessed based on hematoxylin and eosin-stained tissues slices.

Series [3] relates to healthy subjects and patients with CelD. Nature of the series: Clinical safety, whole study. It counts as in vivo, human. The protocol: In Part A, healthy subjects were randomised to single ascending doses of IMU-856 (10 mg to 160 mg) or placebo. In Part B healthy subjects were randomised to multiple once-daily doses of IMU-856 (40, 80, and 160 mg) or placebo for 14 days. Part C randomised patients with celiac disease who were on a gluten-free diet to multiple once-daily doses of IMU-856 (80 mg and 160 mg) or placebo for 28 days; a once-daily gluten challenge (6 g) was introduced on Day 14 and ended on Day 28. 71 healthy subjects were enrolled in Part A and B (N=19 placebo and N=52 IMU-856) and 43 patients with CelD in Part C (N=14 placebo; N=14 for 80 mg, and N=15 for 160 mg). In Parts A and B, treatment-emergent adverse events (TEAEs) occurred in 24 (73%) and 15 (79%) of subjects receiving any dose of IMU-856 compared to 6 (50%) and 5 (71%) with placebo, respectively. […] In Part C, the most common adverse events with any dose of IMU-856 by preferred term were headache (13 [45%]), nausea (9 [31%]), diarrhoea (8 [28%]), and abdominal distension (7 [24%]). […] In Part C, the mean change in villous height from baseline to Day 29 with 80 mg and 160 mg was −20.9±34.8 μm, and −22.5±51.1 μm, respectively, and −60.3±52.2 μm with placebo. […] Mean change in plasma citrulline increased with 80 mg and 160 mg from baseline to Day 14 (2.4±6.2 and 6.1±5.9 μmol/L, respectively) and from baseline to Day 29 (2.8±7.6 and 2.2±5.3 μmol/L, respectively), but not with placebo (−2.7±5.6 and −4.0±6.5 μmol/L). […] Mean increase in zinc levels from baseline to Day 29 with 80 mg and 160 mg were 0.3±1.4 and 0.9±2.1 μmol/L compared to a mean decrease in placebo (−0.9±2.1 μmol/L). Gluten-induced symptoms were also attenuated by IMU-856.

Each structure is given as a SMILES string. “Also recorded” adds a separate entry of the source.

As for `Cn1c(COc2cc(C(F)(F)F)ccn2)nnc1[C@H]1CC[C@H](c2cnn([C@H]3CC[C@H](N4CC5(CCO5)C4)CC3)c2)CC1` [IMU-856, 6-(trans-4-(4-(trans-4-(4-methyl-5-(((4-(trifluoromethyl)pyridin-2-yl)oxy)methyl)-4H-1,2,4-triazol-3-yl)cyclohexyl)-1H-pyrazol-1-yl)cyclohexyl)-1-oxa-6-azaspiro[3.3]heptane], in the series on IL-2, the “gluten-induced acute immune response, IL-2 release” value is “dampens gluten-induced acute immune response, as measured by IL-2 release, in a dose-dependent fashion; also recorded: dose-dependent lessening of acute immune response”. Moreover, in series [1], the “mean corpuscular hemoglobin concentration (MCHC)” value is “higher mean corpuscular hemoglobin concentration; also recorded: improvement in red blood cell function”. In addition, in series [2], the colon length result was “increasing colon length”, the colon mucosal histology result is “improving colon mucosal histology”, the diarrhea symptoms entry is on record as “improving diarrhea symptoms” and the disease severity entry is given as “reducing disease severity”. Also, in the series with DSS-induced colitis, the colon histology score result was “reduction in the histology score” and the diarrhea score entry was “improvement of the diarrhea score which was similar or even better than the positive control”. Also, in series [3] (human, in vivo), the “IMP-related serious or treatment-emergent adverse events” value was “no investigational medicinal product (IMP)-related serious or treatment-emergent adverse events”; the “dose-dependency in adverse events” value is listed as “nor was there any dose-dependency in adverse events”; the “rates of TEAEs in non-disease related parameters versus placebo” value is “comparable between the active treatment groups and placebo”; the safety and tolerability entry was “safe and well-tolerated”. In addition, in series [3] (whole study), the “dose-limiting toxicities, systematic safety laboratory changes or deaths” value is “No dose-limiting toxicities, systematic safety laboratory changes or deaths”; the “relation of serious adverse events to IMU-856” value was “unrelated to IMU-856”; the serious adverse events result is “Two”.
